Assay results published in patent US8883856B2, “Compositions and methods for the treatment of inflammatory diseases using topoisomerase inhibitors” (priority 2000, dated 2014).

System: neutrophils
Assay: Neutrophil apoptosis, agarose gel DNA laddering
Format: cell-based, human
Text: The inflammation associated with many forms of arthritis is thought to arise from the presence of large numbers of immune cells, such as neutrophils, in the synovial joints of humans. The extended inflammation associated with crystal induced arthritis arises from the interaction of neutrophils with crystals in the synovial joint. One reason the extended duration of the inflammation in this disease may be due to the inhibition of neutrophil apoptosis by crystals. This inhibition may result in the neutrophils remaining in the joint for extended periods. Compounds that overcome this crystal induced suppression of neutrophil apoptosis therefore allow the more rapid clearance of these cells from the joint with the appropriate abatement of inflammation. The process of apoptosis involves the endonuclease driven cleavage of DNA into fragments which may be visualized as a ladder of bands in an agarose gel electrophoresis experiment. Other assays that may be used include caspase 3 quantitation or measurements of cytoplasmic DNA concentration. […] Agents that inhibit caspase activation levels or reduce cytoplasmic DNA are pro-survival (potentially inflammatory) and agents that promote are pro-apoptotic and anti-inflammatory. The use of these methods and their role in neutrophil affected inflammation is described in detail in Tudan et al. J Rheumatol. 27 p 2463-72. 2000. […]

Compound: CC[C@@]1(O)C(=O)OCc2c1cc1n(c2=O)Cc2cc3ccccc3nc2-1 [camptothecin]
- apoptosis in neutrophils first incubated with CPPD crystals (CPPD crystals 1 hour, then drug 0.1 uM 4 hours): extensive apoptosis
- DNA laddering (apoptosis) in neutrophils (drug alone, 0.1 uM, 4 hours): extensive DNA laddering
